Entries after “also recorded” stand apart in the source; their conditions may differ.
Key:
[1] = tested on: SUIT-2 cells; test: In vitro antiproliferative assay (MTS), SUIT-2; assay type: cell-based, human; conditions: 4 day
Procedure: Cells were plated at a density of 3000 (THLE-2 and PC-3) and 1000 (PANC-1, SUIT-2 and FEMX) cells per well (on the basis of their growth rate) in 200 µl of medium in a 96-well plate. Medium was changed daily, and after four days, the assay was read using a MTS kit (Promega) according to the instructions of the manufacturer. Graphs display average of percent growth with standard deviation (n = 8).

[2] = tested on: TNF-α induced NfkB signaling in NIH3T3 cells; test: NFkB luciferase reporter assay in NIH3T3; assay type: cell-based; conditions: NIH3T3, 10 µM and 20 µM, 24 hours
Procedure: Vectors were obtained from the following: GliBS-Luc reporter (gift from H. Sasaki), pBluescript (pBS) (Stratagene), FL-HA-GLI1 (Gli1) and Gli2-GFP (Gli2) (gifts from R. Toftgård), Super8XTOPFlash, and NFkB-luc (Panomics). 10 ng renilla luciferase (pRL-TK) (Promega) was used as a transfection control. HEK293 and NIH3T3 cells were seeded at 80,000 per well in 48-well plates on day 1, and were co-transfected on day 2 using a total of 0.4 µg plasmid per well mixed at 1∶3 in FUGENE6 according to manufacturer^'s instructions. On day 3, control medium and activating medium (50% L1 conditioned medium, 50% Shh conditioned medium or medium containing 10 ng/mL recombinant rcrTNF-α (R&D Systems)) +/− 10–20 µM MS-0022 were added, using DMSO as a control (the NFkB pathway inhibitor Bay11-7082 was used as a control in the NFkB assay). Samples were analyzed on day 4 or 5 using the Dual Luciferase assay kit according to manufacturer^'s instructions. Graphs display relative or fold reporter activity, and are calculated from a mean ratio of firefly reporter luminescence/pRL-TK luminescence with standard deviation error bars (n = 3). The experiments have been repeated with similar results.

[3] = tested on: SUIT-2 cells; test: Passage growth assay, SUIT-2; assay type: cell-based, human; conditions: 5 µM, passage 2 and 3
Procedure: 20,000 cells were seeded per well in 6 well plates (triplicates) with DMSO or 5 µM MS-0022. Treatment medium was changed on day 3–5, and after 5–7 days the cells were trypsinized, re-suspended in medium and counted, before reseeding cells at 20,000/well for a subsequent passage. The average growth of MS-0022 treated cells was calculated as a percentage of the growth of the DMSO control at the end of each passage. Graphs display average of percent growth with standard deviation bars (n = 3).

[4] = molecular target: T1, CDK1/cyclinB(h) (Homo sapiens, UniProt P06493); test: Millipore kinaseprofiler diversity array; assay type: biochemical; conditions: 10 µM MS-0022
T1 construct: purchased Millipore (Upstate) KinaseProfiler
Procedure: (§1) Table 4 Kinase activity in presence of 10 µM MS-0022 in a kinaseprofiler diversity array. | column: Activity %

[5] = molecular target: T2, CDK2/cyclinA(h) (Homo sapiens, UniProt P24941); test: Millipore kinaseprofiler diversity array; assay type: biochemical; conditions: 10 µM MS-0022
T2 construct: purchased Millipore (Upstate) KinaseProfiler
Procedure: as §1

[6] = molecular target: T3, SRPK1(h) (Homo sapiens, UniProt Q96SB4); test: Millipore kinaseprofiler diversity array; assay type: biochemical; conditions: 10 µM MS-0022
T3 construct: purchased Millipore (Upstate) KinaseProfiler
Procedure: as §1

[7] = molecular target: T4, PKG1α(h) (Homo sapiens, UniProt Q13976); test: Millipore kinaseprofiler diversity array; assay type: biochemical; conditions: 10 µM MS-0022
T4 construct: purchased Millipore (Upstate) KinaseProfiler
T4 sequence (Q13976 whole entry): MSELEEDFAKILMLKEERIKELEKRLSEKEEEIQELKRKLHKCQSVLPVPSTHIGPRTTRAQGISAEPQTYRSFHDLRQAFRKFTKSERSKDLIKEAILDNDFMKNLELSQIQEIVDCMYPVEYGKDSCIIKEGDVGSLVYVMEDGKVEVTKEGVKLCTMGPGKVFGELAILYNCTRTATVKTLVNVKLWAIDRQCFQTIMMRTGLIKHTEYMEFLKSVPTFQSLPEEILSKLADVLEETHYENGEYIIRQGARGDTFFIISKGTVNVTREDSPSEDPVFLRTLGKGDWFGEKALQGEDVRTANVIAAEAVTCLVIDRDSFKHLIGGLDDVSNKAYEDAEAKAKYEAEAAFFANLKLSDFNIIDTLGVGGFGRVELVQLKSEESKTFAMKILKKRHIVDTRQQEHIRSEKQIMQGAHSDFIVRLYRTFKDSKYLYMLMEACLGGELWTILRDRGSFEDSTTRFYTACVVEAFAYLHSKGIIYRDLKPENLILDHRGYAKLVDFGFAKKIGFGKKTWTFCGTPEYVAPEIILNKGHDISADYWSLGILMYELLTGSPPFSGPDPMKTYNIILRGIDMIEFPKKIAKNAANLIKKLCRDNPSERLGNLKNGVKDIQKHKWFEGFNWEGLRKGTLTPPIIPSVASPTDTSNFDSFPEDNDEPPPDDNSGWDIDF
Procedure: as §1

[8] = molecular target: T5, PDGFRβ(h) (Homo sapiens, UniProt P09619); test: Millipore kinaseprofiler diversity array; assay type: biochemical; conditions: 10 µM MS-0022
T5 construct: purchased Millipore (Upstate) KinaseProfiler
Procedure: as §1

[9] = molecular target: T6, NEK2(h) (Homo sapiens, UniProt P51955); test: Millipore kinaseprofiler diversity array; assay type: biochemical; conditions: 10 µM MS-0022
T6 construct: purchased Millipore (Upstate) KinaseProfiler
Procedure: as §1

[10] = molecular target: T7, ALK(h) (Homo sapiens, UniProt Q9UM73); test: Millipore kinaseprofiler diversity array; assay type: biochemical; conditions: 10 µM MS-0022
T7 construct: purchased Millipore (Upstate) KinaseProfiler
T7 sequence (Q9UM73 19-1620): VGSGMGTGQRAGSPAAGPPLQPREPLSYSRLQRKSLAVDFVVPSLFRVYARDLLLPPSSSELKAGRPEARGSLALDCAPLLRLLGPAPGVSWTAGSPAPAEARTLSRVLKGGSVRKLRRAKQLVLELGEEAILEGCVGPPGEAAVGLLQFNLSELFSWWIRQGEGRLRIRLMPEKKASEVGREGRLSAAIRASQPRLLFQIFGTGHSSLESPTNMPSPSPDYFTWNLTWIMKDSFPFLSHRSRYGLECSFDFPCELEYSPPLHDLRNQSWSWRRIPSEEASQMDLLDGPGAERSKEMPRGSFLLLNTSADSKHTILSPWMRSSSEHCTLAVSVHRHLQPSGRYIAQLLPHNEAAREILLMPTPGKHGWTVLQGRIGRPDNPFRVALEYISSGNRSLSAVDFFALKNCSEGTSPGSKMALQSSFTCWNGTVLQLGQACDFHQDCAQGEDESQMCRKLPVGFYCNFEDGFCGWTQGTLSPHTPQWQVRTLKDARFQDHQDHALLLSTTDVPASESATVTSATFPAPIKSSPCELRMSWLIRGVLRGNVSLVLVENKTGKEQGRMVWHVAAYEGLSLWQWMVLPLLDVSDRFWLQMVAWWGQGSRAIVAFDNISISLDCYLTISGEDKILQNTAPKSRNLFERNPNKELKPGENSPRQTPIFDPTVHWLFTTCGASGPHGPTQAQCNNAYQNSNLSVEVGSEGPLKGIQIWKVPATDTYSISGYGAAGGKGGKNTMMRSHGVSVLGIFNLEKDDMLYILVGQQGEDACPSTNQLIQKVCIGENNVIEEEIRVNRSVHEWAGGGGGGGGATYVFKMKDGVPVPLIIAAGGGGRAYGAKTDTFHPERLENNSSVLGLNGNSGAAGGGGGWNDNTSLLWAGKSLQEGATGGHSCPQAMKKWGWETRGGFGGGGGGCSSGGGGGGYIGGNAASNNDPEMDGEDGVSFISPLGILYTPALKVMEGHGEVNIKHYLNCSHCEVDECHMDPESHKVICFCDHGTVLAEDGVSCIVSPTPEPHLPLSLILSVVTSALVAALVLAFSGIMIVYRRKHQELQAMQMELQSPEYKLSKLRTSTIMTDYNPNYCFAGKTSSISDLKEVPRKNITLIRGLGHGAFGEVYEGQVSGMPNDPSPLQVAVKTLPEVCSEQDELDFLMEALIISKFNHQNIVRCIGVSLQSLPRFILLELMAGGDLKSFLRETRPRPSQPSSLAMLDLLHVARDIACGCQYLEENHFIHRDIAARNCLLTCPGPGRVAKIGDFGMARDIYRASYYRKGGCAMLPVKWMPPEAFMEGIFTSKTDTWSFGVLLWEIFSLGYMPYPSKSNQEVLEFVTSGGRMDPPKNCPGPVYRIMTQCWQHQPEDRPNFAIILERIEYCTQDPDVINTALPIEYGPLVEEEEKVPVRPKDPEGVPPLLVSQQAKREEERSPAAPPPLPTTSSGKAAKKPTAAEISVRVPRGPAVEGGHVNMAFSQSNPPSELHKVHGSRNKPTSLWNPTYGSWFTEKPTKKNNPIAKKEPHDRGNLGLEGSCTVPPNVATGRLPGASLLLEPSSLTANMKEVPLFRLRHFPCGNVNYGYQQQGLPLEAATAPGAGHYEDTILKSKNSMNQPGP
Procedure: as §1

[11] = molecular target: T8, Plk3(h) (Homo sapiens, UniProt Q9H4B4); test: Millipore kinaseprofiler diversity array; assay type: biochemical; conditions: 10 µM MS-0022
T8 construct: purchased Millipore (Upstate) KinaseProfiler
T8 sequence (Q9H4B4 whole entry): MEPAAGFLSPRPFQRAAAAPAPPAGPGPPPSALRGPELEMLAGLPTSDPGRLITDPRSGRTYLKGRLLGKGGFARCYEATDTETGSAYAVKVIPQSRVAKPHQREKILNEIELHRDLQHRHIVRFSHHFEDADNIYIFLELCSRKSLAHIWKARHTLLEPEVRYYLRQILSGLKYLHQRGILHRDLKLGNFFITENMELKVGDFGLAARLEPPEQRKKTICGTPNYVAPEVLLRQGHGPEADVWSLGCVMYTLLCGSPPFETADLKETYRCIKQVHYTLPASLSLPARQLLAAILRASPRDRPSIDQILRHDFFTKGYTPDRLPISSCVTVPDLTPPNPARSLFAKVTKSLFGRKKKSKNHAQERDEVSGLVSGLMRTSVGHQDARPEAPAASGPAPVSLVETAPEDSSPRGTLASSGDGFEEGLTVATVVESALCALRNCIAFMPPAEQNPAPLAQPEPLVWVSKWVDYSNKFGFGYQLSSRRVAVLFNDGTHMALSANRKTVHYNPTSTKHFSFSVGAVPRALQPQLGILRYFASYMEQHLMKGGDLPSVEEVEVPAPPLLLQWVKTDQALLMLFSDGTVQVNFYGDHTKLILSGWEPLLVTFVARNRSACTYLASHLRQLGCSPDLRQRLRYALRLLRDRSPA
Procedure: as §1

[12] = molecular target: T9, PRAK(h) (Homo sapiens, UniProt Q8IW41); test: Millipore kinaseprofiler diversity array; assay type: biochemical; conditions: 10 µM MS-0022
T9 construct: purchased Millipore (Upstate) KinaseProfiler
Procedure: as §1

[13] = molecular target: T10, Fyn(h) (Homo sapiens, UniProt P06241); test: Millipore kinaseprofiler diversity array; assay type: biochemical; conditions: 10 µM MS-0022
T10 construct: purchased Millipore (Upstate) KinaseProfiler
Procedure: as §1

[14] = molecular target: T11, ROCK-I(h) (Homo sapiens, UniProt Q13464); test: Millipore kinaseprofiler diversity array; assay type: biochemical; conditions: 10 µM MS-0022
T11 construct: purchased Millipore (Upstate) KinaseProfiler
T11 sequence (Q13464 whole entry): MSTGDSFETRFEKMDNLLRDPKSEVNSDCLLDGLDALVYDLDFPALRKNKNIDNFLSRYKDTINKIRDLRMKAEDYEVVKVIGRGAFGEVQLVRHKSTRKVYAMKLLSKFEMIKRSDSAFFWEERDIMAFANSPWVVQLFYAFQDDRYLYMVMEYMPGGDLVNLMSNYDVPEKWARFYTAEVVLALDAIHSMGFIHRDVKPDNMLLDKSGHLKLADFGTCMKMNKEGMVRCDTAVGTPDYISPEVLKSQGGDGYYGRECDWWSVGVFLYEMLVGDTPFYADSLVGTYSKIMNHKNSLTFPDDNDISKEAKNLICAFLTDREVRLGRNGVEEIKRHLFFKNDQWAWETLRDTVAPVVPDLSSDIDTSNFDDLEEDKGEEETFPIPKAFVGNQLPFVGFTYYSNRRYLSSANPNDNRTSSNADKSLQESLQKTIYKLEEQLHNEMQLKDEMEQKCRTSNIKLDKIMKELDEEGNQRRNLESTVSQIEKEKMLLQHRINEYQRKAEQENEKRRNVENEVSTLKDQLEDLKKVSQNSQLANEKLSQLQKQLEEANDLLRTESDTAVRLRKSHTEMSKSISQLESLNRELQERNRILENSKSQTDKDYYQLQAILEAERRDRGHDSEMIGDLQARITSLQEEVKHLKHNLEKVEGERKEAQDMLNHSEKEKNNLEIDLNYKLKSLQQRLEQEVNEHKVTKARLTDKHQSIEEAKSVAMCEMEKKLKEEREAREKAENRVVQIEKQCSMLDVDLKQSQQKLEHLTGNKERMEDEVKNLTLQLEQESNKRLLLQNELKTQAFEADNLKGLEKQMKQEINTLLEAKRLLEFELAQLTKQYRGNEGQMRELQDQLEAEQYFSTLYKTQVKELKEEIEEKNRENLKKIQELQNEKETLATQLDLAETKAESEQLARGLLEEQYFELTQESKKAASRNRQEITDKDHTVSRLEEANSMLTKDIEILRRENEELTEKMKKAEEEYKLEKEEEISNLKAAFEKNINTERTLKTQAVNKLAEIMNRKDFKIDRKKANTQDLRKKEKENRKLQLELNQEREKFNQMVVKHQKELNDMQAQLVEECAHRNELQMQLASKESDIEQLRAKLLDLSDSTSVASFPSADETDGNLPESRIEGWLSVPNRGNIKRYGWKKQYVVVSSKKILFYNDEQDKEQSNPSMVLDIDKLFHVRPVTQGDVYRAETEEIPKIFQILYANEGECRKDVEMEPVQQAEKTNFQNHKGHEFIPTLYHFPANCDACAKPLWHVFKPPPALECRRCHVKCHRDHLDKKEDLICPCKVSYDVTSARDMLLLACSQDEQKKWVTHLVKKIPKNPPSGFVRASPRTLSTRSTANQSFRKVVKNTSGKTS
Procedure: as §1

[15] = molecular target: T12, CDK7/cyclinH/MAT1(h) (Homo sapiens, UniProt P50613); test: Millipore kinaseprofiler diversity array; assay type: biochemical; conditions: 10 µM MS-0022
T12 construct: purchased Millipore (Upstate) KinaseProfiler
Procedure: as §1

[16] = molecular target: T13, IRAK4(h) (Homo sapiens, UniProt Q9NWZ3); test: Millipore kinaseprofiler diversity array; assay type: biochemical; conditions: 10 µM MS-0022
T13 construct: purchased Millipore (Upstate) KinaseProfiler
T13 sequence (Q9NWZ3 whole entry): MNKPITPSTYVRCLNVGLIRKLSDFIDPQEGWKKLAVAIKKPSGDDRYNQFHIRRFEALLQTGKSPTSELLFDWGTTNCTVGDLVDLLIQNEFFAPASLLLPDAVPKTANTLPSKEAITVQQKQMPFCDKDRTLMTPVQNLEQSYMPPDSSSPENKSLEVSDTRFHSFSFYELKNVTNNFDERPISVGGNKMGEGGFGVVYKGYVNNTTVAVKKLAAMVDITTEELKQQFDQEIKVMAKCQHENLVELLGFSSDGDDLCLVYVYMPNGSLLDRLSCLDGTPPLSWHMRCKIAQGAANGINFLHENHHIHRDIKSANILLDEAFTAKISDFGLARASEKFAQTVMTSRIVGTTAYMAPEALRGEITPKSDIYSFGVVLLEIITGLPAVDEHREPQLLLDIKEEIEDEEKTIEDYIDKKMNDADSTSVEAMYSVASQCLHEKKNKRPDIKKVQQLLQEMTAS
Procedure: as §1

[17] = tested on: PANC-1 xenograft; test: PANC-1 subcutaneous xenograft in CB17/SCID mice; assay type: in vivo, mouse
Procedure: Cells were lysed for RNA extraction after 48 or 72 hours of treatment. Total RNA from cultured cells or tumor tissue was isolated using the GeneElute miniprep kit (Sigma-Aldritch) following the manufacturer^'s instructions. cDNA was synthesized from the isolated mRNA using the Retroscript kit (Ambion), and real-time PCR was carried out using the SYBR Green PCR master mix (Stratagene) according to the manufacturer^'s instructions with an Mx3000P cycler (Stratagene). The relative concentrations of cDNA present in each sample were calculated by the MxPro software (Stratagene), normalized for GAPDH (mRNA from cells) or GUS (mRNA from tumors). For real time PCR primer sequences see Table 6. For the tumor tissue real time PCR, previously described human and mouse specific primers against GUSB, PTCH1 and GLI1were used.
For PANC-1 xenografts, 4–6 week old CB17/SCID mice were injected with 5×10^6 PANC-1 (n = 6 per group) cells in 200 µl PBS subcutaneously on day 1. IP treatment with 50 mg/kg MS-0022 began when median tumor size reached 25 mm^2 (day 27). MS-0022 was pulverized using a pestle, and was mixed into a stable suspension in water containing 1% Tween 80 (Sigma-Aldrich). Mice were treated with MS-0022 or solvent for a period of 30 days after initiation in a 5 day injection 2 day pause scheme, and tumor size was measured throughout using calipers (mm^2). After 30 days the mice were sacrificed and tumors dissected and weighed. The PANC-1 xenograft endpoint was taken two days after the last compound treatment.

[18] = tested on: SUIT-2 xenograft; test: SUIT-2 subcutaneous xenograft in CB17/SCID mice; assay type: in vivo
[19] = tested on: 58 kinases; test: Millipore kinase diversity panel (whole panel); assay type: biochemical; conditions: 10 µM
[20] = QD, IP at 50 mg/kg, 5 day injection/2 day pause, end of treatment, vs control solvent
[21] = 50 mg/kg daily PO, 18 days, vs control group

SMILES: Cc1cccn2cc(-c3ccc(NC(=O)c4ccccc4Br)cc3)nc12 [MS-0022, 2-bromo-N-(4-(8-methylimidazo[1,2-a]pyridin-2-yl)phenyl)benzamide]
- growth (MTS), SUIT-2 [1]: only MS-0022 reduced growth
- TNF-α induced NfkB signaling [2]: nor did it block; also recorded: slight increase of NFkB signaling
- serial passage growth reduction, SUIT-2 [3]: not significant
- activity at 10 µM [4]: 110%
- activity at 10 µM [5]: 98%
- activity at 10 µM [6]: 102%
- activity at 10 µM [7]: 94%
- activity at 10 µM [8]: 108%
- activity at 10 µM [9]: 127%
- activity at 10 µM [10]: 95%
- activity at 10 µM [11]: 107%
- activity at 10 µM [12]: 71%
- activity at 10 µM [13]: 100%
- activity at 10 µM [14]: 103%
- activity at 10 µM [15]: 103%
- activity at 10 µM [16]: 95%
- reduction in tumor volume, PANC-1 xenograft [17, 20]: 38%
- reduction in tumor weight, PANC-1 xenograft [17, 20]: 33%
- human (tumor) or mouse (stroma) Ptch1 or Gli1 mRNA levels in PANC-1 tumors ([17]; endpoint of the experiment, 50 mg/kg IP): no statistically relevant difference
- animal weight, SUIT-2 xenograft mice ([18]; 50 mg/kg daily PO): unaffected
- outwards signs of toxicity, SUIT-2 xenograft mice ([18]; 50 mg/kg daily PO): did not result in any outwards signs of toxicity
- reduction in tumor volume, SUIT-2 xenograft [18, 21]: 27%
- reduction in tumor weight, SUIT-2 xenograft [18, 21]: 36%
- mouse (stromal) Gli1 mRNA in SUIT-2 tumors ([18]; after 7 days of treatment, 50 mg/kg PO, 50 mg/kg): reduced significantly
- human or mouse Gli1, or Ptch1 mRNA levels in SUIT-2 tumors ([18]; endpoint of the experiment (18 days), 50 mg/kg PO): no statistical relevant reduction
- inhibition of kinases of the diversity panel (in words) [19]: did not significantly inhibit

Source: article PMC3115942 (PLoS ONE, 2011)
